Reference: patent publication US6620833B1, “Substituted benzimidazoles, production and use thereof as agents for combating parasitic protozoas” (Bayer Aktiengesellschaft, priority 1998, dated 2003)

Key:
Format in all cases: in vivo
[1] = test system: Eimeria acervulina, Eimeria maxima and Eimeria tenella; experiment: Cage experiment on coccidiosis/chicks, mixed experimental infection; conditions: for dropping scores / lesion score: assessment 0 to 6; for mortality n: dead animals/animals employed
Description: 8 to 12 day-old male chicks (e.g. LSL Brinkschulte/Senden) which have been reared coccidia-free receive the compounds according to the invention (test substances) in the concentration indicated in ppm with the feed from 3 days before (day −3) infection (=a.i.) until 8 (9) days after infection (=p.i.). 3 animals are kept in each cage. One or more groups of this type are employed per dose. Infection is carried out by means of a stomach tube directly into the crop with approximately 100,000 sporulated oocysts of Eimeria acervulina and with approximately 30,000 oocysts each of E. maxima and 40,000 sporulated oocysts of E. tenella. These are highly virulent strains. The exact infection dose is adjusted so that, if possible, one of three experimentally infected untreated chicks dies due to the infection. For assessment of the efficacy, the following criteria are taken into account: weight increase from the start of the experiment to the end of the experiment, death rate due to infection, macroscopic assessment of the faeces with respect to diarrhoea and excretion of blood on days 5 and 7 p.i. (assessment 0 to 6), macroscopic assessment of the intestinal mucosa, in particular of the appendices (assessment 0 to 6) and the oocyst excretion as well as the proportion (in %) of the oocysts sporulating in the course of 24 hours. The number of oocysts in the faeces was determined with the aid of a McMaster counting chamber (see Engelbrecht and coworkers “Parasitologische Arbeitsmethoden in Medizin and Veterinärmedizin” [Parasitological Working Methods in Medicine and Veterinary Medicine], Akademie-Verlag, Berlin (1965)). The individual findings are related to the untreated non-infected control groups and a total score is calculated (cf. A. Haberkorn (1986), pp. 263 to 270 in Research in Avian Coccidiosis ed L. R. McDougald, L. P. Joyner, P. L. Long, Proceedings of the Georgia Coccidiosis Conference, Nov. 18-20, 1985. Athens/Georgia USA).
In the column “ppm”, the concentration of the active compound employed in the feed is indicated in ppm.
In the column “mortality” the percentage of the dead animals is indicated under % and the number of dead animals/animals employed in the experiment is indicated under n.
In the column “weight % of not inf. control” the ratio of the weight of the treated animals to the weight of the non-infected control group is indicated.
In the columns “dropping scores”, “lesion score” and “oocyst control”, individual details of the action are given.
In the column “% efficacy”, the total score is assessed; 0% means no action, 100% means full action.

[2] = test system: Eimeria acervulina; experiment: Cage experiment on coccidiosis/chicks, E. acervulina readout; conditions: for Efficacy against Eimeria acervulina: first symbol of cell
[3] = test system: Eimeria maxima; experiment: Cage experiment on coccidiosis/chicks, E. maxima readout; conditions: for Efficacy against Eimeria maxima: second symbol of cell
[4] = test system: Eimeria tenella; experiment: Cage experiment on coccidiosis/chicks, E. tenella readout; conditions: for Efficacy against Eimeria tenella: third symbol of cell

SMILES: CCN(Cn1c(C(F)(F)F)nc2c(Br)cc3c(c21)OC(F)(F)C(F)(F)O3)C(=O)OC [Ex. 1]
- % efficacy tot. ([1]; Table 1, 7.5 ppm in feed): 65%
- mortality % ([1]; Table 1, 7.5 ppm in feed): 0%
- oocyst in % of inf. control tot. ([1]; Table 1, 7.5 ppm in feed): 1.3%
- weight % of not inf. control ([1]; Table 1, 7.5 ppm in feed): 76%
- dropping scores ([1]; Table 1, 7.5 ppm in feed): 6
- lesion score ([1]; Table 1, 7.5 ppm in feed): 5.3
- mortality n ([1]; Table 1, 7.5 ppm in feed): 0/3
- % efficacy tot. ([1]; Table 1, 10 ppm in feed): 75%
- mortality % ([1]; Table 1, 10 ppm in feed): 0%
- oocyst in % of inf. control tot. ([1]; Table 1, 10 ppm in feed): 0%
- weight % of not inf. control ([1]; Table 1, 10 ppm in feed): 84%
- dropping scores ([1]; Table 1, 10 ppm in feed): 6
- lesion score ([1]; Table 1, 10 ppm in feed): 3.3
- mortality n ([1]; Table 1, 10 ppm in feed): 0/3
- % efficacy tot. ([1]; Table 2, 1 ppm in feed): 36%
- mortality % ([1]; Table 2, 1 ppm in feed): 33%
- oocyst in % of inf. control tot. ([1]; Table 2, 1 ppm in feed): 82%
- weight % of not inf. control ([1]; Table 2, 1 ppm in feed): 31%
- dropping scores ([1]; Table 2, 1 ppm in feed): 6
- lesion score ([1]; Table 2, 1 ppm in feed): 6
- mortality n ([1]; Table 2, 1 ppm in feed): 1/3
- % efficacy tot. ([1]; Table 2, 2.5 ppm in feed): 36%
- mortality % ([1]; Table 2, 2.5 ppm in feed): 33%
- oocyst in % of inf. control tot. ([1]; Table 2, 2.5 ppm in feed): 58%
- weight % of not inf. control ([1]; Table 2, 2.5 ppm in feed): 42%
- dropping scores ([1]; Table 2, 2.5 ppm in feed): 4-6
- lesion score ([1]; Table 2, 2.5 ppm in feed): 6
- mortality n ([1]; Table 2, 2.5 ppm in feed): 1/3
- % efficacy tot. ([1]; Table 2, 5 ppm in feed): 90%
- mortality % ([1]; Table 2, 5 ppm in feed): 0%
- oocyst in % of inf. control tot. ([1]; Table 2, 5 ppm in feed): 37%
- weight % of not inf. control ([1]; Table 2, 5 ppm in feed): 110%
- dropping scores ([1]; Table 2, 5 ppm in feed): 1
- lesion score ([1]; Table 2, 5 ppm in feed): 0
- mortality n ([1]; Table 2, 5 ppm in feed): 0/3
- % efficacy tot. ([1]; Table 3, 5 ppm in feed): 45%
- mortality % ([1]; Table 3, 5 ppm in feed): 0%
- oocyst in % of inf. control tot. ([1]; Table 3, 5 ppm in feed): 12%
- weight % of not inf. control ([1]; Table 3, 5 ppm in feed): 72%
- dropping scores ([1]; Table 3, 5 ppm in feed): 6
- lesion score ([1]; Table 3, 5 ppm in feed): 6
- mortality n ([1]; Table 3, 5 ppm in feed): 0/3
- % efficacy tot. ([1]; Table 3, 7.5 ppm in feed): 65%
- mortality % ([1]; Table 3, 7.5 ppm in feed): 0%
- oocyst in % of inf. control tot. ([1]; Table 3, 7.5 ppm in feed): 1.3%
- weight % of not inf. control ([1]; Table 3, 7.5 ppm in feed): 76%
- dropping scores ([1]; Table 3, 7.5 ppm in feed): 6
- lesion score ([1]; Table 3, 7.5 ppm in feed): 5.3
- mortality n ([1]; Table 3, 7.5 ppm in feed): 0/3
- % efficacy tot. ([1]; Table 3, 10 ppm in feed): 75%
- mortality % ([1]; Table 3, 10 ppm in feed): 0%
- oocyst in % of inf. control tot. ([1]; Table 3, 10 ppm in feed): 0%
- weight % of not inf. control ([1]; Table 3, 10 ppm in feed): 84%
- dropping scores ([1]; Table 3, 10 ppm in feed): 6
- lesion score ([1]; Table 3, 10 ppm in feed): 3.3
- mortality n ([1]; Table 3, 10 ppm in feed): 0/3
- oocyst in % of inf. control ac. ([2]; Table 1, 7.5 ppm in feed): 3%
- oocyst in % of inf. control ac. ([2]; Table 1, 10 ppm in feed): 0%
- oocyst in % of inf. control ac. ([2]; Table 2, 1 ppm in feed): 49%
- oocyst in % of inf. control ac. ([2]; Table 2, 2.5 ppm in feed): 19%
- oocyst in % of inf. control ac. ([2]; Table 2, 5 ppm in feed): 1%
- oocyst in % of inf. control ac. ([2]; Table 3, 5 ppm in feed): 6%
- oocyst in % of inf. control ac. ([2]; Table 3, 7.5 ppm in feed): 3%
- oocyst in % of inf. control ac. ([2]; Table 3, 10 ppm in feed): 0%
- Efficacy against Eimeria acervulina ([2]; Table 4, dose 2.5 ppm): 1
- Efficacy against Eimeria acervulina ([2]; Table 4, dose 5 ppm): 2
- Efficacy against Eimeria acervulina ([2]; Table 4, dose 10 ppm): 2
- oocyst in % of inf. control max. ([3]; Table 1, 7.5 ppm in feed): 0%
- oocyst in % of inf. control max. ([3]; Table 1, 10 ppm in feed): 0%
- oocyst in % of inf. control max. ([3]; Table 2, 1 ppm in feed): 100%
- oocyst in % of inf. control max. ([3]; Table 2, 2.5 ppm in feed): 100%
- oocyst in % of inf. control max. ([3]; Table 2, 5 ppm in feed): 100%
- oocyst in % of inf. control max. ([3]; Table 3, 5 ppm in feed): 0%
- oocyst in % of inf. control max. ([3]; Table 3, 7.5 ppm in feed): 0%
- oocyst in % of inf. control max. ([3]; Table 3, 10 ppm in feed): 0%
- Efficacy against Eimeria maxima ([3]; Table 4, dose 2.5 ppm): 1
- Efficacy against Eimeria maxima ([3]; Table 4, dose 5 ppm): 2
- Efficacy against Eimeria maxima ([3]; Table 4, dose 10 ppm): 2
- oocyst in % of inf. control ten. ([4]; Table 1, 7.5 ppm in feed): 1%
- oocyst in % of inf. control ten. ([4]; Table 1, 10 ppm in feed): 1%
- oocyst in % of inf. control ten. ([4]; Table 2, 1 ppm in feed): 97%
- oocyst in % of inf. control ten. ([4]; Table 2, 2.5 ppm in feed): 55%
- oocyst in % of inf. control ten. ([4]; Table 2, 5 ppm in feed): 11%
- oocyst in % of inf. control ten. ([4]; Table 3, 5 ppm in feed): 30%
- oocyst in % of inf. control ten. ([4]; Table 3, 7.5 ppm in feed): 1%
- oocyst in % of inf. control ten. ([4]; Table 3, 10 ppm in feed): 1%
- Efficacy against Eimeria tenella ([4]; Table 4, dose 2.5 ppm): 1
- Efficacy against Eimeria tenella ([4]; Table 4, dose 5 ppm): 2
- Efficacy against Eimeria tenella ([4]; Table 4, dose 10 ppm): 2

SMILES: CO[C@@H]1[C@@H](OC)[C@H](C)[C@@](O)(CC(=O)O)O[C@H]1[C@H](C)[C@H]1O[C@@]2(CC[C@@](C)([C@H]3CC[C@@](C)([C@@H]4O[C@@H]([C@H]5O[C@](C)(O)[C@H](C)C[C@@H]5C)C[C@@H]4O[C@@H]4C[C@H](OC)[C@@H](OC)[C@H](C)O4)O3)O2)C[C@H](O)[C@H]1C [MAD, Maduramicin, reference compound]
- % efficacy tot. ([1]; Table 2, 1 ppm in feed): 73%
- mortality % ([1]; Table 2, 1 ppm in feed): 0%
- oocyst in % of inf. control tot. ([1]; Table 2, 1 ppm in feed): 46%
- weight % of not inf. control ([1]; Table 2, 1 ppm in feed): 93%
- dropping scores ([1]; Table 2, 1 ppm in feed): 1
- lesion score ([1]; Table 2, 1 ppm in feed): 2
- mortality n ([1]; Table 2, 1 ppm in feed): 0/3
- % efficacy tot. ([1]; Table 2, 2 ppm in feed): 84%
- mortality % ([1]; Table 2, 2 ppm in feed): 0%
- oocyst in % of inf. control tot. ([1]; Table 2, 2 ppm in feed): 51%
- weight % of not inf. control ([1]; Table 2, 2 ppm in feed): 114%
- dropping scores ([1]; Table 2, 2 ppm in feed): 0
- lesion score ([1]; Table 2, 2 ppm in feed): 2
- mortality n ([1]; Table 2, 2 ppm in feed): 0/3
- % efficacy tot. ([1]; Table 2, 3 ppm in feed): 100%
- mortality % ([1]; Table 2, 3 ppm in feed): 0%
- oocyst in % of inf. control tot. ([1]; Table 2, 3 ppm in feed): 1.3%
- weight % of not inf. control ([1]; Table 2, 3 ppm in feed): 112%
- dropping scores ([1]; Table 2, 3 ppm in feed): 0
- lesion score ([1]; Table 2, 3 ppm in feed): 0
- mortality n ([1]; Table 2, 3 ppm in feed): 0/3
- oocyst in % of inf. control ac. ([2]; Table 2, 1 ppm in feed): 8%
- oocyst in % of inf. control ac. ([2]; Table 2, 2 ppm in feed): 8%
- oocyst in % of inf. control ac. ([2]; Table 2, 3 ppm in feed): 1%
- oocyst in % of inf. control max. ([3]; Table 2, 1 ppm in feed): 100%
- oocyst in % of inf. control max. ([3]; Table 2, 2 ppm in feed): 100%
- oocyst in % of inf. control max. ([3]; Table 2, 3 ppm in feed): 0%
- oocyst in % of inf. control ten. ([4]; Table 2, 1 ppm in feed): 30%
- oocyst in % of inf. control ten. ([4]; Table 2, 2 ppm in feed): 45%
- oocyst in % of inf. control ten. ([4]; Table 2, 3 ppm in feed): 3%
